The text below walks through data of patent publication US10111433B2 (priority 2014, dated 2018).

One assay has as its system Plasmopara viticola. The assay is described as follows: Field activity against Plasmopara viticola on grapevine. Type of assay: in vivo. To be noted: Table B2; Mandipropamid 93.75 gai/ha; bunches, ten days after sixth application. The text has this: Merlot grapevines were cultivated in rows with 1 m between plants within the row, and 2 m spaces between rows. Treatment plots were defined with an 8 m^2 vertical area. The trial consisted of three replicates of the treatment list, with the positions of each treatment plot randomised within the replicate.
Test compounds were formulated and applied to the relevant treatment plots, using a backpack sprayer with a flat fan nozzle. The first application was made when the majority of plants were at growth stage BBCH 15 and following applications at 10-14 day intervals through to growth stage BBCH 79.
The first symptoms of the target pathogen Plasmopara viticola were observed between the second and third applications. Plants outside the trial area were inoculated to increase the disease pressure, but infection processes within the trial plots were natural. […]
Ten days after the sixth application, at growth stage BBCH 79, the fruit was assessed for infection by Plasmopara viticola. 50 bunches per plot were assessed, the scores given in table B2 are percent disease control relative to untreated, based on the mean percentage of bunches showing symptoms of infection across all three replicates of a treatment.

Assay [1] has as its system Phytophthora infestans. The format is in vivo.
In another assay the test system is Phytophthora capsici. The assay is described as follows: Activity against Phytophthora capsici, growth inhibition in nutrient broth (microtiter plate). The format is cell-based. How it is done: Conidia of the fungus from cryogenic storage are directly mixed into nutrient broth (PDB potato dextrose broth). After placing a (DMSO) solution of test compound into a microtiter plate (96-well format), the nutrient broth containing the fungal spores is added. […] Table B4 to B21 gives the mean percent control relative to untreated.

Assay [2] concerns Phytophthora infestans. Type of assay: in vivo. To be noted: Table B3; Chlorothalonil 1000 gai/ha; leaf area, four days after final application.
The mark [3] stands for this setting: Table B20, Iprovalicarb 0.6250 ppm, no A-1.2 rate printed in the row.

Read-outs that look alike come from different tables or passages of the source.

With `C#CCOc1ccc(CCNC(=O)C(OCC#C)c2ccc(Cl)cc2)cc1OC` (stereo not shown) [Mandipropamid], in the assay with Plasmopara viticola, the “% disease control relative to untreated” value came to 17.3%. Further, the “% disease control” value with Phytophthora infestans [1] (Table B1.1, Mandipropamid 0.06 ppm) was found to be 0%; in the assay with Phytophthora infestans [1] (Table B1.1, Mandipropamid 0.2 ppm), 0%; in the assay with Phytophthora infestans [1] (Table B1.1, Mandipropamid 0.6 ppm) it was 3%; in the assay on Phytophthora capsici (Table B9, Mandipropamid 0.0003 ppm) it was 16%; in the assay with Phytophthora capsici (Table B9, Mandipropamid 0.0006 ppm) it was 0%; in the assay with Phytophthora capsici (Table B9, Mandipropamid 0.0012 ppm), 0%. The “% disease control” value in the assay with Phytophthora capsici (Table B9, Mandipropamid 0.0025 ppm) was found to be 17%; with Phytophthora capsici (Table B9, Mandipropamid 0.0050 ppm), 13%; with Phytophthora capsici (Table B9, Mandipropamid 0.0100 ppm), 15%.

As for `CCO[PH](=O)[O-].CCO[PH](=O)[O-].CCO[PH](=O)[O-].[Al+3]` [Fosethyl-Al], the “% disease control” value was 8% with Phytophthora capsici (Table B21, Fosethyl-Al 0.3125 ppm); 14% with Phytophthora capsici (Table B21, Fosethyl-Al 0.6250 ppm); 14% with Phytophthora capsici (Table B21, Fosethyl-Al 1.2500 ppm).

Consider `CSC1=N[C@@](C)(c2ccccc2)C(=O)N1Nc1ccccc1` [Fenamidone], for which the inhibition of growth at 0.0031 ppm with Phytophthora capsici (Phytophthora capsici, Table B18, Fenamidone 0.0031 ppm, read-out: % disease control) was found to be 12%. Moreover, the inhibition of growth at 0.0063 ppm in the assay on Phytophthora capsici (Phytophthora capsici, Table B18, Fenamidone 0.0063 ppm, read-out: % disease control) stood at 4%. Also, the inhibition of growth at 0.0125 ppm with Phytophthora capsici (Phytophthora capsici, Table B18, Fenamidone 0.0125 ppm, read-out: % disease control) was 41%. In the assay on Phytophthora capsici (Phytophthora capsici, Table B18, Fenamidone 0.0250 ppm, read-out: % disease control), the inhibition of growth at 0.025 ppm came to 54%.

Regarding `CCC(C)(NC(=O)c1cc(Cl)c(C)c(Cl)c1)C(=O)CCl` (stereo not shown) [Zoxamid], the inhibition of growth at 0.0063 ppm in the assay on Phytophthora capsici (Phytophthora capsici, Table B14, Zoxamid 0.0063 ppm, read-out: % disease control) was found to be 19%. In the assay with Phytophthora capsici (Phytophthora capsici, Table B14, Zoxamid 0.0125 ppm, read-out: % disease control), the inhibition of growth at 0.0125 ppm was determined as 40%. The inhibition of growth at 0.025 ppm with Phytophthora capsici (Phytophthora capsici, Table B14, Zoxamid 0.0250 ppm, read-out: % disease control) was 48%. Further, the inhibition of growth at 0.05 ppm in the assay on Phytophthora capsici (Phytophthora capsici, Table B14, Zoxamid 0.0500 ppm, read-out: % disease control) amounted to 65%.

For `CCCCCCCCc1c(CC)nc2ncnn2c1N` [Ametoctradin], the “% disease control” value in the assay with Phytophthora capsici (Table B17, Ametoctradin 0.0063 ppm) was determined as 8%; in the assay with Phytophthora capsici (Table B17, Ametoctradin 0.0125 ppm), 8%; with Phytophthora capsici (Table B17, Ametoctradin 0.0250 ppm), 13%; in the assay on Phytophthora capsici (Table B17, Ametoctradin 0.0500 ppm), 30%.

In the case of `COc1ccc(C(=CC(=O)N2CCOCC2)c2ccc(Cl)cc2)cc1OC` [Dimetomorph], the inhibition of growth at 0.0031 ppm with Phytophthora capsici (Phytophthora capsici, Table B10, Dimetomorph 0.0031 ppm, read-out: % disease control) turned out to be 0%. Further, the inhibition of growth at 0.0063 ppm with Phytophthora capsici (Phytophthora capsici, Table B10, Dimetomorph 0.0063 ppm, read-out: % disease control) is 14%. For the same compound, in the assay on Phytophthora capsici (Phytophthora capsici, Table B10, Dimetomorph 0.0125 ppm, read-out: % disease control), the inhibition of growth at 0.0125 ppm came to 0%. In the assay with Phytophthora capsici (Phytophthora capsici, Table B10, Dimetomorph 0.1000 ppm, read-out: % disease control), the inhibition of growth at 0.1 ppm amounted to 28%.

On to `C[C@@]1(c2ccc(Oc3ccccc3)cc2)OC(=O)N(Nc2ccccc2)C1=O` (racemic) [Famoxadone], for which the inhibition of growth at 0.1563 ppm in the assay with Phytophthora capsici (Phytophthora capsici, Table B19, Famoxadone 0.1563 ppm, read-out: % disease control) stood at 16%. Besides, in the assay with Phytophthora capsici (Phytophthora capsici, Table B19, Famoxadone 0.3125 ppm, read-out: % disease control), the inhibition of growth at 0.3125 ppm was found to be 16%. Besides, in the assay with Phytophthora capsici (Phytophthora capsici, Table B19, Famoxadone 0.6250 ppm, read-out: % disease control), the inhibition of growth at 0.625 ppm was found to be 16%. The inhibition of growth at 1.25 ppm in the assay with Phytophthora capsici (Phytophthora capsici, Table B19, Famoxadone 1.2500 ppm, read-out: % disease control) came out at 16%. Moreover, the inhibition of growth at 2.5 ppm in the assay with Phytophthora capsici (Phytophthora capsici, Table B19, Famoxadone 2.5000 ppm, read-out: % disease control) was found to be 16%. Moreover, the inhibition of growth at 5 ppm in the assay on Phytophthora capsici (Phytophthora capsici, Table B19, Famoxadone 5.0000 ppm, read-out: % disease control) worked out at 25%.

Consider `O=C(NCc1ncc(C(F)(F)F)cc1Cl)c1c(Cl)cccc1Cl` [Fluopicolid], for which the “% disease control” value in the assay with Phytophthora capsici (Table B15, Fluopicolid 0.0625 ppm) turned out to be 6%; in the assay with Phytophthora capsici (Table B15, Fluopicolid 0.1250 ppm), 59%; in the assay with Phytophthora capsici (Table B15, Fluopicolid 0.2500 ppm) it was 69%; in the assay with Phytophthora capsici (Table B15, Fluopicolid 0.5000 ppm), 79%.

As for `Cc1c(Br)c2ccc(F)cc2n1S(=O)(=O)c1ncn(S(=O)(=O)N(C)C)n1` [Amisulbrom], the “% disease control” value in the assay with Phytophthora capsici (Table B16, Amisulbrom 0.0063 ppm) amounted to 5%; in the assay on Phytophthora capsici (Table B16, Amisulbrom 0.0125 ppm), 6%; with Phytophthora capsici (Table B16, Amisulbrom 0.0500 ppm), 24%; in the assay on Phytophthora capsici (Table B16, Amisulbrom 0.1000 ppm), 35%.

As for `Cc1ccc(C(C)NC(=O)[C@@H](NC(=O)OC(C)C)C(C)C)cc1` (stereo partly shown) [Iprovalicarb], the “% disease control” value is reported as 91% with Phytophthora capsici (setting [3]); 18% in the assay with Phytophthora capsici (Table B20, Iprovalicarb 1.2500 ppm); 0% in the assay with Phytophthora capsici (Table B20, Iprovalicarb 2.5000 ppm). Also, the “Expected action (Colby)” value with Phytophthora capsici (setting [3]) came out at 66%.

For `O=C1c2ccccc2C(=O)N1SC(Cl)(Cl)Cl` [Folpet], the “% disease control” value in the assay with Phytophthora infestans [1] (Table B1.2, Folpet 20 ppm) is given as 0%; in the assay on Phytophthora infestans [1] (Table B1.2, Folpet 60 ppm) it was 33%. In addition, the inhibition of growth at 0.0313 ppm with Phytophthora capsici (Phytophthora capsici, Table B12, Folpet 0.0313 ppm, read-out: % disease control) was determined as 17%. Also, the inhibition of growth at 0.0625 ppm in the assay on Phytophthora capsici (Phytophthora capsici, Table B12, Folpet 0.0625 ppm, read-out: % disease control) amounted to 11%. In addition, the inhibition of growth at 0.125 ppm with Phytophthora capsici (Phytophthora capsici, Table B12, Folpet 0.1250 ppm, read-out: % disease control) came to 19%. Further, in the assay with Phytophthora capsici (Phytophthora capsici, Table B12, Folpet 0.2500 ppm, read-out: % disease control), the inhibition of growth at 0.25 ppm is 19%.

For Mancozeb, the “% disease control” value with Phytophthora capsici (Table B4, Mancozeb 0.3125 ppm) is given as 3%; in the assay with Phytophthora capsici (Table B4, Mancozeb 0.6250 ppm) it was 1%; with Phytophthora capsici (Table B4, Mancozeb 1.2500 ppm), 0%; in the assay on Phytophthora capsici (Table B4, Mancozeb 2.5000 ppm) it was 0%; in the assay with Phytophthora capsici (Table B4, Mancozeb 5.0000 ppm), 1%; in the assay on Phytophthora capsici (Table B4, Mancozeb 10.0000 ppm), 1%. The “% disease control” value with Phytophthora capsici (Table B4, Mancozeb 20.0000 ppm) came to 0%.

On to `COCC(=O)N(c1c(C)cccc1C)[C@H](C)C(=O)OC` [Mefenoxam], for which the “% disease control” value is 0% in the assay on Phytophthora capsici (Table B8, Mefenoxam 0.0031 ppm); 13% in the assay on Phytophthora capsici (Table B8, Mefenoxam 0.0063 ppm); 13% in the assay with Phytophthora capsici (Table B8, Mefenoxam 0.0125 ppm); 28% with Phytophthora capsici (Table B8, Mefenoxam 0.0250 ppm); 42% in the assay with Phytophthora capsici (Table B8, Mefenoxam 0.0500 ppm).

As for `O=[N+]([O-])c1cc(C(F)(F)F)c(Cl)c([N+](=O)[O-])c1Nc1ncc(C(F)(F)F)cc1Cl` [Fluazinam], the inhibition of growth at 0.0625 ppm in the assay on Phytophthora capsici (Phytophthora capsici, Table B11, Fluazinam 0.0625 ppm, read-out: % disease control) worked out at 4%. Moreover, the inhibition of growth at 0.125 ppm with Phytophthora capsici (Phytophthora capsici, Table B11, Fluazinam 0.1250 ppm, read-out: % disease control) was found to be 10%. Further, the inhibition of growth at 0.25 ppm in the assay on Phytophthora capsici (Phytophthora capsici, Table B11, Fluazinam 0.2500 ppm, read-out: % disease control) is 0%. Also, the inhibition of growth at 0.5 ppm in the assay on Phytophthora capsici (Phytophthora capsici, Table B11, Fluazinam 0.5000 ppm, read-out: % disease control) was 14%.

Take `N#Cc1c(Cl)c(Cl)c(Cl)c(C#N)c1Cl` [Chlorothalonil]: the “% disease control” value with Phytophthora infestans [1] (Table B1.3, Chlorothalonil 60 ppm) is 6%. Moreover, the “% disease control relative to untreated” value in the assay on Phytophthora infestans [2] is given as 4.3%. In addition, the inhibition of growth at 0.0781 ppm in the assay on Phytophthora capsici (Phytophthora capsici, Table B5, Chlorothalonil 0.0781 ppm, read-out: % disease control) stood at 24%. The inhibition of growth at 0.1563 ppm in the assay on Phytophthora capsici (Phytophthora capsici, Table B5, Chlorothalonil 0.1563 ppm, read-out: % disease control) was found to be 24%. Also, the inhibition of growth at 0.3125 ppm with Phytophthora capsici (Phytophthora capsici, Table B5, Chlorothalonil 0.3125 ppm, read-out: % disease control) turned out to be 23%. Moreover, the inhibition of growth at 0.625 ppm in the assay with Phytophthora capsici (Phytophthora capsici, Table B5, Chlorothalonil 0.6250 ppm, read-out: % disease control) is 64%.

As for `N#Cc1sc2c(=O)c3ccccc3c(=O)c=2sc1C#N` [Dithianon], the inhibition of growth at 0.125 ppm with Phytophthora capsici (Phytophthora capsici, Table B6, Dithianon 0.1250 ppm, read-out: % disease control) turned out to be 0%. Further, the inhibition of growth at 0.25 ppm in the assay with Phytophthora capsici (Phytophthora capsici, Table B6, Dithianon 0.2500 ppm, read-out: % disease control) was 7%. Moreover, the inhibition of growth at 0.5 ppm in the assay on Phytophthora capsici (Phytophthora capsici, Table B6, Dithianon 0.5000 ppm, read-out: % disease control) amounted to 8%. In addition, in the assay with Phytophthora capsici (Phytophthora capsici, Table B6, Dithianon 1.0000 ppm, read-out: % disease control), the inhibition of growth at 1 ppm was found to be 25%.

`CO/C=C(/C(=O)OC)c1ccccc1Oc1cc(Oc2ccccc2C#N)ncn1` [Azoxystrobin]: the “% disease control” value in the assay with Phytophthora capsici (Table B7, Azoxystrobin 0.0313 ppm) is given as 23%; in the assay with Phytophthora capsici (Table B7, Azoxystrobin 0.0625 ppm) it was 23%; with Phytophthora capsici (Table B7, Azoxystrobin 0.1250 ppm) it was 62%.

For the compound `CCNC(=O)NC(=O)/C(C#N)=N/OC` [Cymoxanil], in the assay on Phytophthora capsici (Phytophthora capsici, Table B13, Cymoxanil 0.0625 ppm, read-out: % disease control), the inhibition of growth at 0.0625 ppm was found to be 0%. Moreover, in the assay with Phytophthora capsici (Phytophthora capsici, Table B13, Cymoxanil 0.1250 ppm, read-out: % disease control), the inhibition of growth at 0.125 ppm stood at 10%. Further, in the assay on Phytophthora capsici (Phytophthora capsici, Table B13, Cymoxanil 0.2500 ppm, read-out: % disease control), the inhibition of growth at 0.25 ppm was determined as 0%. Moreover, the inhibition of growth at 0.5 ppm in the assay on Phytophthora capsici (Phytophthora capsici, Table B13, Cymoxanil 0.5000 ppm, read-out: % disease control) was 11%. For the same compound, the inhibition of growth at 1 ppm with Phytophthora capsici (Phytophthora capsici, Table B13, Cymoxanil 1.0000 ppm, read-out: % disease control) is 8%. Further, the inhibition of growth at 2 ppm with Phytophthora capsici (Phytophthora capsici, Table B13, Cymoxanil 2.0000 ppm, read-out: % disease control) came out at 36%.
